Assay results published in patent US20030171406A1, “Medicinal compositions containing propenone derivatives” (priority 2000, published 2003).
Where two headings read alike, the source gives them in different places.

Legend:
[1] = molecular target: HIV-1 integrase (Human immunodeficiency virus type 1 group M subtype B, UniProt P12497); experiment: HIV-1 integrase inhibition assay (microtiter plate, substrate/target DNA)
Procedure: Substrate DNA and target DNA, which sequences were indicated below, were synthesized by Amersham Pharmacia Biotech and dissolved in KTE buffer (composition: 100 mM KCl, 1 mM EDTA, 10 mM Tris-HCl (pH 7.6)) at concentration of 2 pmol/μL and 5 pmol/μL, respectively. The DNA solutions were annealed with each complement by slowly cooling after heating.
(2) Calculations of the percent inhibitions (the IC50 values of test compounds)
Streptavidin, obtained from Vector Laboratories, was dissolved in 0.1 M carbonate buffer (composition: 90 mM Na2CO3, 10 mM NaHCO3) at concentration of 40 μg/mL. After coating each well of microtiter plates (obtained from NUNC) with 50 μL of the above solution at 4° C. over night, each well was washed twice with PBS (composition: 13.7 mM NaCl, 0.27 mM KCl, 0.43 mM Na2HPO4, 0.14 mM KH2PO4) and blocked with 300 μL of 1% skim milk in PBS for 30 min. Additionally, each well was washed twice with PBS and added 50 μL of substrate DNA solution (2 pmol/μL). The microtiter plates were kept at room temperature for 30 min. Then, each well was washed twice with PBS and once with H2O.
Subsequently, in the each well prepared above were added 45 μL of the reaction buffer prepared from 12 μL of the buffer (composition: 150 mM MOPS (pH 7.2), 75 mM MnCl2, 50 mM 2-mercaptoethanol, 25% glycerol, 500 μg/mL bovine serum albumin-fraction V), 1 μL of target DNA (5 pmol/μL), and 32 μL of the distilled water. Additionally, 6 μL of either a test compound in DMSO or DMSO for positive control(PC) was mixed with the above reaction buffer, then 9 μL of an integrase solution (30 pmol) was added and mixed well. In the well of negative control (NC) was added 9 μL of the integrase dilution buffer (composition: 20 mM MOPS (pH7.2), 400 mM potassium glutamate, 1 mM EDTA, 0.1% NP-40, 20% glycerol, 1 mM DTT, 4M urea).
The microtiter plates were incubated at 30° C. for 1 hour. The reaction solution was removed and each well was washed twice with PBS. Subsequently, each well of the microtiter plates was filled with 100 μL of anti-digoxigenin antibody labeled with alkaline phosphatase (Sheep Fab fragment: obtained from Boehringer) and incubated at 30° C. for 1 hour. Then, each well was washed twice with 0.05% Tween20 in PBS and once with PBS. Next, 150 μL of the Alkaline phosphatase reaction buffer (composition: 10 mM p-Nitrophenylphosphate (obtained from Vector Laboratories), 5 mM MgCl2, 100 mM NaCl, 100 mM Tris-HCl (pH 9.5))was added in each well. […] The optical density (OD) at 405 nm of each well was measured and the percent inhibition was determined by the following expression.
The percent inhibition (%)=100[1-{(C abs.−NC abs.)/(PC abs.−NC abs.)}]
C abs.; the OD of the well of the compounds
NC abs.: the OD of the negative control (NC)
PC abs.: the OD of the positive control (PC)
IC50(μg/mL)=x-{(X-50)(x-y)/(X-Y)}

[2] = system: HIV (HTLV-IIIB strain); experiment: MTT assay, MT-4 cells infected with HIV; format: cell-based; settings: 5 days, inhibits 50% of cell damage caused by virus
Procedure: The inhibitory effects of each anti-human immunodeficiency virus active substance against human immunodeficiency virus have been determined by MTT assay described below.
(1) Human T cell strain Molt-4 clone 8 persistently infected HIV (HTLV-IIIB strain) was cultivated in RPMI-1640 medium supplemented with 10% fatal bovine serum, and supernatant was filtered, measured RT activity, and stored at −80° C. On the other hand, each human anti-immunodeficiency virus active substance was diluted to fixed concentration in culture medium, they were plated to 96-well microtiter plate. Subsequently, 100 μL (3.5×10^4 cells) of MT-4 cell suspension was plated to 96-well microtiter plate, and then above mentioned supernatant containing HIV, which was diluted by culture medium, was added 50 μL (60 pfu (plaque forming unit.)) to 96-well microtiter plate.
(2) After cultivation at 37° C. for 5 days in CO2 incubator, into all well was added 30 μL per well 3-(4,5-[…])-2,5-diphenyltetrazolium bromide (MTT) 5 mg/mL) and PBS, and then incubated for 1 h.
In this time, alive cells reduced MTT and formazan was precipitated, therefore, 150 μL of cell supernatants were removed from all wells, and then 150 μL of lysate (10% triton X-100 and 0.4% (v/v) HCl-containing isopropanol) was added, and formazan was eluated on a plate shaker.

[3] = Human immunodeficiency virus 1, MT4, 120 h, read-out: EC50

Row | Compound | melting point [°C] | IC50 [1] [µM] | EC50 [2, 3] [µg/mL] | EC50 [2] [µg/mL]
1 | O=C(C=C(O)c1nn[nH]n1)c1ccc(Cc2ccc(F)cc2)o1 [Compound I-3, 1-[5-(4-Fluorobenzyl)furan-2-yl]-3-hydroxy-3-(2H-tetrazol-5-yl)propenone] | 121 to 123 | 1.27 | – | –
2 | O=C(C=C(O)c1ncccn1)c1cnc(Cc2ccc(F)cc2)o1 [Compound I-51, 1-[2-(4-Fluorobenzyl)oxazol-5-yl]-3-hydroxy-3-(pyrimidin-2-yl)propenone] | 97 to 100 | 1.48 | – | –
3 | O=C(C=C(O)c1nn[nH]n1)c1c[nH]cc1CCc1ccccc1 [Compound I-22, 3-Hydroxy-1-[(4-(2-phenylethyl))pyrrol-3-yl]-3-(2H-tetrazol-5-yl)propenone] | 228 to 230 | 1.91 | – | –
4 | O=C(C=C(O)c1ncccn1)c1ccc(Cc2ccc(F)cc2)o1 [Compound I-47, 1-[5-(4-Fluorobenzyl)furan-2-yl]-3-hydroxy-3-(pyrimidin-2-yl)propenone] | – | 1.08 | – | –
5 | O=C(C=C(O)c1nn[nH]n1)c1occc1Cc1ccc(F)cc1 [Compound I-11, 1-[3-(4-Fluorobenzyl)furan-2-yl]-3-hydroxy-3-(2H-tetrazol-5-yl)propenone] | 171 to 174 | 1.34 | – | –
6 | CC(C)Nc1cccnc1N1CCN(C(=O)c2cc3cc(NS(C)(=O)=O)ccc3[nH]2)CC1 [Delavirdine, 1-[5-methanesulfonamideindolyl-2-carbonyl]-4-[3-(1-methylethylamino)-2-pyridyl]piperadine] | – | – | 0.012 | –
7 | Nc1nc(NC2CC2)c2ncn([C@H]3C=C[C@@H](CO)C3)c2n1 [Abacavir] | – | – | 0.63 | –
8 | O=C(C=C(O)c1nc[nH]n1)c1cc(C(=O)O)n(Cc2ccccc2)c1 [Compound I-29, 1-[(1-Benzyl-5-carboxy)pyrrol-3-yl]-3-hydroxy-3-(1H-1,2,4-triazol-3-yl)propenone] | 264 to 265 | 2.96 | – | –
9 | O=C(C=C(O)c1ccccn1)c1cnc(Cc2ccc(F)cc2)o1 [Compound I-50, 1-[2-(4-Fluorobenzyl)oxazol-5-yl]-3-hydroxy-3-(pyridin-2-yl)propenone] | 108 to 109 | 1.23 | – | –
10 | Cc1c(O)cccc1C(=O)N[C@@H](CSc1ccccc1)[C@H](O)CN1C[C@H]2CCCC[C@H]2C[C@H]1C(=O)NC(C)(C)C (relative stereo) [Nelfinavir, [3S-[2(2S*,3S*),3α,4aβ,8aβ]]-N-(1,1-dimethylethyl)-decahydro-2-[2-hydroxy-3-[(3-hydroxy-2-methylbenzoyl)amino]-4-(phenylthio)butyl]-3-isoquinolinecarboxamide] | – | – | 0.01 | –
11 | O=c1[nH]cnc2c1ncn2C1CCC(CO)O1 (stereo not shown) [Didanosine, 2′,3′-dideoxyinosine] | – | – | 0.64 | –
12 | Nc1ccn([C@H]2CC[C@@H](CO)O2)c(=O)n1 [Zalcitabine, 2′,3′-dideoxycytidine] | – | – | 0.017 | –
13 | O=C(C=C(O)c1nc[nH]n1)c1ccoc1Cc1ccc(F)cc1 [Compound I-25, 1-[2-(4-Fluorobenzyl)furan-3-yl]-3-hydroxy-3-(1H-1,2,4-triazol-3-yl)propenone] | 144 to 147 | 1.53 | – | –
14 | CC(C)(C)NC(=O)[C@@H]1CN(Cc2cccnc2)CCN1CC(O)C[C@@H](Cc1ccccc1)C(=O)N[C@H]1c2ccccc2C[C@H]1O (stereo partly drawn) [Indinavir, [1(1S,2R),5(s)]-2,3,5-trideoxy-N-(2,3-dihydro-2-hydroxy-1H-inden-1-yl)-5-[2-{[(1,1-dimethylethyl)amino]carbonyl}-4-(3-pyridinylmethyl)-1-piperadinyl]-2-(phenylmethyl)-D-erythro-pentonamide] | – | – | 0.014 | –
15 | Cc1ccnc2c1NC(=O)c1cccnc1N2C1CC1 [Nevirapine] | – | – | 0.02 | –
16 | O=C(C=C(O)c1nn[nH]n1)c1ccoc1Cc1ccc(F)cc1 [Compound I-20, 1-[2-(4-Fluorobenzyl)furan-3-yl]-3-hydroxy-3-(2H-tetrazol-5-yl)propenone] | 150 to 153 | 1.02 | – | –
17 | O=C(C=C(O)c1nc[nH]n1)c1occc1Cc1ccc(F)cc1 [Compound I-12, 1-[3-(4-Fluorobenzyl)furan-2-yl]-3-hydroxy-3-(1H-1,2,4-triazol-3-yl)propenone] | 221 to 223 | 1.37 | – | –
18 | CC(C)(C)NC(=O)[C@@H]1C[C@@H]2CCCC[C@@H]2CN1C[C@@H](O)[C@H](Cc1ccccc1)NC(=O)[C@H](CC(N)=O)NC(=O)c1ccc2ccccc2n1 [Saquinavir, N-tert-butyl-decahydro-2-[2(R)-hydroxy-4-phenyl-3(S)-{[N-(2-quinolylcarbony)-L-asparginyl]amino}butyl]-(4aS,8aS)-isoquinoline-3(S)-carboxamide] | – | – | 0.0037 | –
19 | CCCn1cc(Cc2ccc(F)cc2)c(C(=O)C=C(O)c2nc[nH]n2)c1 [Compound I-17, 1-[[4-(4-Fluorobenzyl)-1-propyl]pyrrol-3-yl]-3-hydroxy-3-(1H-1,2,4-triazol-3-yl)propenone] | 210 to 211 | 4.51 | – | –
20 | O=C(C=C(O)c1ccccn1)c1ccc(Cc2ccc(F)cc2)o1 [Compound I-46, 1-[5-(4-Fluorobenzyl)furan-2-yl]-3-hydroxy-3-(pyridin-2-yl)propenone] | 84 to 85 | 1.36 | – | –
21 | O=C(C=C(O)c1nn[nH]n1)c1cn(S(=O)(=O)c2ccccc2)cc1CCc1ccccc1 [Compound I-21, 1-[[1-Benzenesulfonyl-4-(2-phenylethyl)]pyrrol-3-yl]-3-hydroxy-3-(2H-tetrazol-5-yl)propenone] | 178 to 181 | 1.2 | – | –
22 | CCOCn1c(Cc2ccccc2)c(C(C)C)c(=O)[nH]c1=O [Emivirine, 6-benzyl-1-(ethoxymethyl)-5-isopropyluracil] | – | – | 0.0045 | –
23 | 5-[(:3,5-dichlorophenyl)thio]-4-(1-methylethyl)-1-(4-pyridynylmethyl)-1H-imidazole-2-methanol carbamate [Capravirine] | – | – | – | 0.0014
24 | CC(C)c1nc(CN(C)C(=O)N[C@H](C(=O)N[C@@H](Cc2ccccc2)C[C@H](O)[C@H](Cc2ccccc2)NC(=O)OCc2cncs2)C(C)C)cs1 (relative stereo) [Ritonavir, [5S-(5R*,8R*,10R*,11R*)]-10-hydroxy-2-methyl-5-(1-methylethyl)-1-[2-(1-methylethyl)-4-thiazolyl]-3,6-dioxo-8,10-bis(phenylmethyl)-2,4,7,12-tetraazatridecane-13-hydroxy acid 5-thiazolylmethyl ester] | – | – | 0.026 | –
25 | O=C1Nc2ccc(Cl)cc2C(C#CC2CC2)(C(F)(F)F)O1 [Efavirenz, (S)-(−)-6-chloro-4-(chloropropylethynyl)-1,4-dihydro-4-(trifluoromethyl)-2H-3,1-benzoxazin-2-one] | – | – | 0.00058 | –
26 | (±)-α-[(2-acetyl-5-methylphenyl)amino]-2,6-dichlorobenzeneacetomide [Loviride] | – | – | – | 0.011
27 | O=C(C=C(O)c1nc[nH]n1)c1c[nH]cc1Cc1ccc(F)cc1 [Compound I-19, 1-[4-(4-fluorobenzyl)pyrrol-3-yl]-3-hydroxy-3-(1H-1,2,4-triazol-3-yl)propenone] | 210 to 213 | 2.02 | – | –
